Values after ≈ are worked out from the molar mass of the structure shown.

What all share (format): functional
For one assay, the system named is UO-31. The assay can be described thus: Growth inhibition of Homo sapiens (human) UO31 cells at 10 uM after 48 hr by SRB assay. Conditions: UO-31, 48 h, read-out: GI. A general note: The SRB assay estimates cell density from bound dye.
For another assay, the system named is SR. Description: Growth inhibition of Homo sapiens (human) SR cells at 10 uM after 48 hr by SRB assay. The note with it: read-out: GI.
For the next assay, the system named is RXF 393. The assay can be described thus: Growth inhibition of Homo sapiens (human) RXF393 cells at 10 uM after 48 hr by SRB assay. The note with it: RXF 393, 48 h, read-out: GI.
The subject of another assay is MDA-MB-435. Description: Growth inhibition of Homo sapiens (human) MDA-MB-435 cells at 10 uM after 48 hr by SRB assay. Conditions: MDA-MB-435, 48 h, read-out: GI.
In another assay the test system is HCT-116. Description: Growth inhibition of Homo sapiens (human) HCT116 cells at 10 uM after 48 hr by SRB assay. The note with it: HCT-116, 48 h, read-out: GI.
Another assay has as its system CAKI-1. Description: Growth inhibition of Homo sapiens (human) CAKI-1 cells at 10 uM after 48 hr by SRB assay. The note with it: CAKI-1, 48 h, read-out: GI.
The next assay relates to HCT-15. The assay can be described thus: Growth inhibition of Homo sapiens (human) HCT15 cells at 10 uM after 48 hr by SRB assay. The note with it: HCT-15, 48 h, read-out: GI.
The subject of the next assay is PC-3. Description: Growth inhibition of Homo sapiens (human) PC3 cells at 10 uM after 48 hr by SRB assay. Conditions: PC-3, 48 h, read-out: GI.
For the next assay, the system named is K562. Description: Growth inhibition of Homo sapiens (human) K562 cells at 10 uM after 48 hr by SRB assay. Conditions: K562, 48 h, read-out: GI.
For another assay, the system named is T47D. Description: Growth inhibition of Homo sapiens (human) T47D cells at 10 uM after 48 hr by SRB assay. Conditions: read-out: GI.
A further assay concerns M14. Description: Growth inhibition of Homo sapiens (human) M14 cells at 10 uM after 48 hr by SRB assay. Conditions: M14, 48 h, read-out: GI.
A further assay concerns NCI-H23. Description: Growth inhibition of Homo sapiens (human) NCI-H23 cells at 10 uM after 48 hr by SRB assay. Conditions: NCI-H23, 48 h, read-out: GI.
A further assay concerns SK-MEL-5. Description: Growth inhibition of Homo sapiens (human) SK-MEL-5 cells at 10 uM after 48 hr by SRB assay. The note with it: SK-MEL-5, 48 h, read-out: GI.
A further assay concerns Bacillus subtilis. The assay can be described thus: Antimicrobial activity against Bacillus subtilis ATCC 6633 after 48 hr by two-fold serial broth dilution method. Conditions: ATCC 6633, 48 h. (In general: In broth dilution the organism is exposed to a series of concentrations in liquid medium.)
Another assay has as its system Malme-3M. The assay can be described thus: Growth inhibition of Homo sapiens (human) MALME-3M cells at 10 uM after 48 hr by SRB assay. Conditions: read-out: GI.
Assay [1] deals with Candida albicans. The assay can be described thus: Antimicrobial activity against Candida albicans DSM 70014 after 48 hr by two-fold serial broth dilution method. The note with it: DSM 70014, 48 h.
The subject of the next assay is UACC-62. The assay can be described thus: Growth inhibition of Homo sapiens (human) UACC62 cells at 10 uM after 48 hr by SRB assay. Conditions: UACC-62, 48 h, read-out: GI.
Assay [2] deals with Pseudomonas aeruginosa. The assay can be described thus: Antimicrobial activity against Pseudomonas aeruginosa ATCC 10145 after 48 hr by two-fold serial broth dilution method. The note with it: ATCC 10145, 48 h.
The next assay deals with HL-60(TB). Description: Growth inhibition of Homo sapiens (human) HL-60(TB) cells at 10 uM after 48 hr by SRB assay. Conditions: HL-60, 48 h, read-out: GI.
The subject of the next assay is KM12. Description: Growth inhibition of Homo sapiens (human) KM12 cells at 10 uM after 48 hr by SRB assay. The note with it: KM12, 48 h, read-out: GI.
In a further assay the test system is IGROV-1. The assay can be described thus: Growth inhibition of Homo sapiens (human) IGROV1 cells at 10 uM after 48 hr by SRB assay. The note with it: IGROV-1, 48 h, read-out: GI.
In the next assay the test system is MDA-MB-468. The assay can be described thus: Growth inhibition of Homo sapiens (human) MDA-MB-468 cells at 10 uM after 48 hr by SRB assay. The note with it: MDA-MB-468, 48 h, read-out: GI.
For another assay, the system named is A549. The assay can be described thus: Growth inhibition of Homo sapiens (human) A549/ATCC cells at 10 uM after 48 hr by SRB assay. Conditions: A549, 48 h, read-out: GI.
For another assay, the system named is EKVX. The assay can be described thus: Growth inhibition of Homo sapiens (human) EKVX cells at 10 uM after 48 hr by SRB assay. The note with it: read-out: GI.
Another assay concerns Escherichia coli. Description: Antimicrobial activity against Escherichia coli ATCC 11775 after 48 hr by two-fold serial broth dilution method. The note with it: ATCC 11775, 48 h.
Another assay has as its system ACHN. The assay can be described thus: Growth inhibition of Homo sapiens (human) ACHN cells at 10 uM after 48 hr by SRB assay. The note with it: read-out: GI.
The next assay concerns SF-295. The assay can be described thus: Growth inhibition of Homo sapiens (human) SF295 cells at 10 uM after 48 hr by SRB assay. The note with it: SF-295, 48 h, read-out: GI.
Assay [3] concerns Staphylococcus aureus. The assay can be described thus: Antimicrobial activity against Staphylococcus aureus DSM 1104 after 48 hr by two-fold serial broth dilution method. Conditions: DSM 1104, 48 h.
Another assay has as its system MCF7. The assay can be described thus: Growth inhibition of Homo sapiens (human) MCF7 cells at 10 uM after 48 hr by SRB assay. Conditions: MCF7, 48 h, read-out: GI.
For assay [4], the system named is Candida albicans. The assay can be described thus: Antimicrobial activity against Candida albicans DSM 70014 after 48 hr by two-fold serial broth dilution method relative to clotrimazole.
Assay [5] has as its system Staphylococcus aureus. Description: Antimicrobial activity against Staphylococcus aureus DSM 1104 after 48 hr by two-fold serial broth dilution method relative to ampicillin.
A further assay concerns HOP-92. Description: Growth inhibition of Homo sapiens (human) HOP92 cells at 10 uM after 48 hr by SRB assay. Conditions: HOP-92, 48 h, read-out: GI.
Assay [6] deals with Pseudomonas aeruginosa. The assay can be described thus: Ratio of ampicillin MIC to compound MIC for Pseudomonas aeruginosa ATCC 10145 after 48 hr by two-fold serial broth dilution method.

`COc1ccc(OC)c(/C=C/c2nnc(SC)n2-c2ccc(Cl)cc2)c1`: the inhibition of growth at 10 µM with UO-31 was 60.4%; in the assay on SR it was 58.5%; in the assay on RXF 393, 40.3%; with MDA-MB-435, 91.3%; in the assay with HCT-116, 40.2%; in the assay with CAKI-1, 35.5%. The inhibition of growth at 10 µM with HCT-15 stood at 41.1%; with PC-3, 61.1%; with K562, 69.3%; in the assay with T47D, 57.2%; in the assay on M14, 40%; in the assay on NCI-H23, 40.3%. The inhibition of growth at 10 µM with SK-MEL-5 worked out at 46.6%; in the assay on Malme-3M it was 55.2%; in the assay with UACC-62, 50.5%; in the assay with HL-60(TB), 34.3%; with KM12 it was 46.9%; in the assay with IGROV-1, 38.2%. Further, the inhibition of growth at 10 µM with MDA-MB-468 was 74.8%; in the assay on A549, 35.2%; in the assay on EKVX, 38.6%; with ACHN, 32.1%; with SF-295, 53.2%; in the assay on MCF7, 53.3%. The MBC with Bacillus subtilis was found to be 100 µg/mL (≈ 258 µM); with Pseudomonas aeruginosa [2], 50 µg/mL (≈ 129 µM); against Escherichia coli, 100 µg/mL (≈ 258 µM); in the assay with Staphylococcus aureus [3] it was 100 µg/mL (≈ 258 µM). The MIC against Bacillus subtilis worked out at 100 µg/mL (≈ 258 µM); in the assay with Candida albicans [1], 50 µg/mL (≈ 129 µM); in the assay with Pseudomonas aeruginosa [2], 50 µg/mL (≈ 129 µM); in the assay on Escherichia coli it was 100 µg/mL (≈ 258 µM); in the assay on Staphylococcus aureus [3] it was 100 µg/mL (≈ 258 µM). The same compound had an MFC against Candida albicans [1] of 100 µg/mL (≈ 258 µM).
Take `COc1ccc(OC)c(/C=C/c2nnc(SCC(=O)c3cc(O)ccc3O)n2-c2ccc(C)cc2)c1`: the Activity in the assay on Candida albicans [4] and in the assay on Staphylococcus aureus [5] was 40% throughout. For the same compound, the MBC against Bacillus subtilis was 50 µg/mL (≈ 99.3 µM); in the assay on Pseudomonas aeruginosa [2] it was 50 µg/mL (≈ 99.3 µM); in the assay on Escherichia coli it was 50 µg/mL (≈ 99.3 µM); in the assay on Staphylococcus aureus [3], 25 µg/mL (≈ 49.6 µM). The MIC with Bacillus subtilis came out at 25 µg/mL (≈ 49.6 µM); against Candida albicans [1], 12.5 µg/mL (≈ 24.8 µM); in the assay with Pseudomonas aeruginosa [2], 50 µg/mL (≈ 99.3 µM); with Escherichia coli, 25 µg/mL (≈ 49.6 µM); against Staphylococcus aureus [3], 12.5 µg/mL (≈ 24.8 µM). For the same compound, the MFC in the assay on Candida albicans [1] came to 25 µg/mL (≈ 49.6 µM).
Take `COc1ccc(OC)c(/C=C/c2nnc(S)n2-c2ccc(C)cc2)c1`: the MBC in the assay on Bacillus subtilis was 25 µg/mL (≈ 70.7 µM); with Pseudomonas aeruginosa [2], 50 µg/mL (≈ 141 µM); against Escherichia coli it was 50 µg/mL (≈ 141 µM); against Staphylococcus aureus [3], 25 µg/mL (≈ 70.7 µM). In addition, the MIC against Bacillus subtilis worked out at 12.5 µg/mL (≈ 35.4 µM); against Candida albicans [1], 25 µg/mL (≈ 70.7 µM); in the assay on Pseudomonas aeruginosa [2], 50 µg/mL (≈ 141 µM); in the assay with Escherichia coli, 25 µg/mL (≈ 70.7 µM); against Staphylococcus aureus [3] it was 12.5 µg/mL (≈ 35.4 µM). This compound also returned an MFC in the assay with Candida albicans [1] of 50 µg/mL (≈ 141 µM). Also, the Activity in the assay on Staphylococcus aureus [5] was 40%.
Regarding `COc1ccc(OC)c(/C=C/c2nnc(Nc3ccccc3)o2)c1`, the inhibition of growth at 10 µM with HOP-92 was 37.5%. Moreover, in the assay with Pseudomonas aeruginosa [6], the Ratio worked out at 4. In addition, the MBC with Bacillus subtilis was 25 µg/mL (≈ 77.3 µM); in the assay on Pseudomonas aeruginosa [2], 25 µg/mL (≈ 77.3 µM); against Escherichia coli, 50 µg/mL (≈ 155 µM); in the assay with Staphylococcus aureus [3], 50 µg/mL (≈ 155 µM). The MIC against Bacillus subtilis was 12.5 µg/mL (≈ 38.7 µM); in the assay on Candida albicans [1], 50 µg/mL (≈ 155 µM); against Pseudomonas aeruginosa [2], 12.5 µg/mL (≈ 38.7 µM); with Escherichia coli, 50 µg/mL (≈ 155 µM); against Staphylococcus aureus [3] it was 25 µg/mL (≈ 77.3 µM). Moreover, the MFC against Candida albicans [1] came out at 50 µg/mL (≈ 155 µM).

The term MBC denotes the lowest tested concentration that kills the bacteria rather than only halting them. By MIC is commonly meant the least concentration at which growth counts as inhibited. A higher MIC goes with a need for much substance. The MFC is the lowest tested concentration that kills the fungus rather than only halting it. A higher MFC goes with less potent killing.

These data come from ChEMBL document CHEMBL3046389, “Synthesis and biological evaluation of novel hydroquinone dimethyl ethers as potential anticancer and antimicrobial agents” (2013).
